Measurements published in patent US10954214B2 (Janssen Pharmaceutica NV, priority 2016, dated 2021).

Columns and labels:
[1] = test system: IL10 secretion by TMD8 ABC-DLBCL cells; assay: Human IL10 Mesoscale assay (TMD-8); assay type: cell-based; conditions: Homo sapiens, TMD8; TMD-8 cells, 24 h
Protocol: (§1) NFKB signaling regulates the secretion of multiple cytokines, including IL6 and IL10. Secretion of the cytokines IL6 and IL10 by TMD8 or OCI-LY3 ABC-DLBCL cells was measured using a mesoscale assay. Inhibition of NFKB signaling by MALT1 or BTK inhibitors results in a decrease of IL6/10 secretion.
(§2) TMD8 or OCI-LY3 cells were propagated in RPMI-1640 (Sigma Aldrich) supplemented with 10% fetal bovine serum (HyClone), 1 mM sodium pyruvate (Invitrogen), 2 mM L-glutamine (Sigma Aldrich) and 1% PenStrep (Sigma Aldrich). Cell passage number should not exceed 30. Cells should be kept between 0.5-2.5 million cells per mL during culturing and cells should be supplemented every 2-3 days with fresh 50 μM beta-mercaptoenthanol. No beta-mercaptoethanol was used during the mesoscale assay.
(§3) For the Mesoscale assay, 100,000 TMD8 or OCI-LY3 cells were seeded per well into black-colored 96-well plates with clear bottom (Corning #3904) and test compounds were added in 9 dilution steps (1:2) ranging from 15 μM to 58.6 nM (final DMSO concentration 0.3%). DMSO control wells were used to determine the maximum signal (High Control (HC)). Treatment with the BTK inhibitor RN486 in a dose range from 30 nM to 131 pM (9 dilutions of 1:2) served as a positive control for NFKB pathway inhibition and was used to determine the maximum inhibition (Low Control (LC)). Compounds and cells were incubated for 24 h at 37° C. and 5% CO2 (assay volume is 150 μL). After 24 h of incubation 50 μL of the supernatant was transferred to a MSD plate (V-Plex Proinflammation Panel 1 (human) kit, Mesoscale (MSD)) and incubated for 2 h with vigorous shaking (600 rpm) at room temperature. Following incubation, plates were washed 3× with PBS+0.05% Tween-20 and 25 μL detection antibody solution (IL6 & IL10 antibodies in diluent 3 (MSD)) was added per well followed by 2 h of incubation with vigorous shaking (600 rpm) at room temperature. After 3× washes with PBS+0.05% Tween-20, plates were incubated with 150 μL 2× Read Buffer T and read on SECTOR imager.

[2] = molecular target: full-length MALT1 protein (Strep-MALT1(1-824)-His) (Homo sapiens (Human), UniProt Q9UDY8); assay: MALT1 Biochemical Protease Assay (Ac-LRSR-AMC substrate); conditions: 10 nM FL MALT1, 200 μM Ac-LRSR-AMC, 4 h at RT; read-out: MALT1_Biochemical activity (Ac-LRSR-amc) IC50
full-length MALT1 protein (Strep-MALT1(1-824)-His), sequence (Q9UDY8 whole entry): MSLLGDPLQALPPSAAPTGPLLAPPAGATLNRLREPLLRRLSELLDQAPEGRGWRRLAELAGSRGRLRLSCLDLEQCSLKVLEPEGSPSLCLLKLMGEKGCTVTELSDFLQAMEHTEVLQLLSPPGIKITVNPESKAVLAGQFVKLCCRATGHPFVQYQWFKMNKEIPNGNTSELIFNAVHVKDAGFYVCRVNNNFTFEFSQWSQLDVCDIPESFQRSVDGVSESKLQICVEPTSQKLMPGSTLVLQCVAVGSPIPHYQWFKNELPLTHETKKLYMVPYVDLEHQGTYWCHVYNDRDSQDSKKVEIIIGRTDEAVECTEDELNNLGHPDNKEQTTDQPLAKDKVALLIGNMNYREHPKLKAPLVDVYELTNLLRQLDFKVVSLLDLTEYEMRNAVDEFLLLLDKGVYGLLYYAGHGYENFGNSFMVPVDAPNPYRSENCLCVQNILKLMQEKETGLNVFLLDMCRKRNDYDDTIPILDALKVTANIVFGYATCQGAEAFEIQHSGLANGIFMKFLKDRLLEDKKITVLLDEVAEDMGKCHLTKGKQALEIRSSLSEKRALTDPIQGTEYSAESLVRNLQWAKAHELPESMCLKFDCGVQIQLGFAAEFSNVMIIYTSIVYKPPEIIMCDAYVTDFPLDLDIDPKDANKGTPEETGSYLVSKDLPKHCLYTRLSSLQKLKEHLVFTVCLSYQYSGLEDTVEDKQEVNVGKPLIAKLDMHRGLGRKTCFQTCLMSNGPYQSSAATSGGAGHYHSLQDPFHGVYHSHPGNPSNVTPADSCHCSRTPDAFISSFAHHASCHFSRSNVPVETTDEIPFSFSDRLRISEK
Protocol: The tetrapeptide LRSR is coupled to AMC (7-amino-4-methylcoumarin) and provides a quenched, fluorescent substrate for the MALT1 protease (SM Biochemicals). […] Test compound concentrations ranged from 30 μM to 0.5 nM using 11 dilution steps (1:3). Background signal was measured from control wells containing assay buffer without enzyme which functions as low control (LC). High control (HC) values were generated using the reaction with enzyme but no compound treatment. Compounds were pre-incubated with MALT1 enzyme for 50 minutes at RT. […] The reaction was subsequently incubated for 4 h at RT and fluorescence was measured.
LC=Median of the low control values
An estimate of the slope of the plot in terms of the Hill coefficient was also obtained. IC50 Calculation:
[formula] With • UB=upper bound • LB=lower bound Used in “Lexis Dose Response Curve Fitting” Version 1.0.

[3] = test system: IL6 secretion by TMD8 ABC-DLBCL cells; assay: Human IL6 Mesoscale assay (TMD-8); assay type: cell-based; conditions: Homo sapiens, TMD8; TMD-8 cells, 24 h
Protocol: as §1, §2, §3

| IC50 [1] | IC50 [2] | IC50 [3] | SMILES |
| --- | --- | --- | --- |
| 2630 nM | 91 nM | 912 nM | COCc1ncc(-n2ncc(C(=O)Nc3cnc(-n4nccn4)c(Cl)c3)c2C(F)(F)F)c2ccccc12 [Cpd 404, N-(5-chloro-6-(2H-1,2,3-triazol-2-yl)pyridin-3-yl)-1-(1-(methoxymethyl)isoquinolin-4-yl)-5-(trifluoromethyl)-1H-pyrazole-4-carboxamide] |
| 1120 nM | 776 nM | 708 nM | COc1cc(NC(=O)c2cnn(-c3cccc4ncccc34)c2C(F)(F)F)cnc1-n1ccnn1 [Cpd 235, N-(5-methoxy-6-(1H-1,2,3-triazol-1-yl)pyridin-3-yl)-1-(quinolin-5-yl)-5-(trifluoromethyl)-1H-pyrazole-4-carboxamide] |
| 759 nM | 1070 nM | 1410 nM | N#Cc1cc(NC(=O)c2cnn(-c3cccn4ccnc34)c2C(F)(F)F)cnc1-n1nccn1 [Cpd 230, N-(5-cyano-6-(2H-1,2,3-triazol-2-yl)pyridin-3-yl)-1-(imidazo[1,2-a]pyridin-8-yl)-5-(trifluoromethyl)-1H-pyrazole-4-carboxamide] |
| 513 nM | 11000 nM | 1020 nM | CN1CCc2ccc(NC(=O)c3cnn(-c4cccc5ncccc45)c3C(F)(F)F)cc2C1=O [Cpd 212, N-(2-methyl-1-oxo-1,2,3,4-tetrahydroisoquinolin-7-yl)-1-(quinolin-5-yl)-5-(trifluoromethyl)-1H-pyrazole-4-carboxamide] |
| 2690 nM | 162 nM | 5620 nM | Cc1nc(-n2nccn2)c(Cl)cc1NC(=O)c1cnn(-c2ccc(F)c3nccn23)c1C(F)(F)F [Cpd 203, N-(5-chloro-2-methyl-6-(2H-1,2,3-triazol-2-yl)pyridin-3-yl)-1-(8-fluoroimidazo[1,2-a]pyridin-5-yl)-5-(trifluoromethyl)-1H-pyrazole-4-carboxamide] |
| 3020 nM | 123 nM | 2570 nM | COc1nccc2c(-n3ncc(C(=O)Nc4cnc(-n5nccn5)c(C#N)c4)c3C(F)(F)F)cccc12 [Cpd 281, N-(5-cyano-6-(2H-1,2,3-triazol-2-yl)pyridin-3-yl)-1-(1-methoxyisoquinolin-5-yl)-5-(trifluoromethyl)-1H-pyrazole-4-carboxamide] |
| 479 nM | 195 nM | 794 nM | O=C(Nc1cnc(-n2nccn2)c(Cl)c1)c1cnn(-c2ccc(F)c3cccnc23)c1C(F)(F)F [Cpd 261, N-(5-chloro-6-(2H-1,2,3-triazol-2-yl)pyridin-3-yl)-1-(5-fluoroquinolin-8-yl)-5-(trifluoromethyl)-1H-pyrazole-4-carboxamide] |
| 93 nM | 1200 nM | 257 nM | Cn1ccc2c(-n3ncc(C(=O)Nc4cnc(-n5nccn5)c(Cl)c4)c3C(F)(F)F)cccc2c1=O [Cpd 226, N-(5-chloro-6-(2H-1,2,3-triazol-2-yl)pyridin-3-yl)-1-(2-methyl-1-oxo-1,2-dihydroisoquinolin-5-yl)-5-(trifluoromethyl)-1H-pyrazole-4-carboxamide] |
| 240 nM | 11 nM | 550 nM | COc1ncc(NC(=O)c2cnn(-c3cccc4c(=O)[nH]ccc34)c2C(F)(F)F)cc1C#N [Cpd 428, N-(5-cyano-6-methoxypyridin-3-yl)-1-(1-oxo-1,2-dihydroisoquinolin-5-yl)-5-(trifluoromethyl)-1H-pyrazole-4-carboxamide] |
| 36 nM | 166 nM | 123 nM | O=C(Nc1cnc(-n2nccn2)c(Cl)c1)c1cnn(-c2cnc(F)c3ccccc23)c1C(F)(F)F [Cpd 264, N-(5-chloro-6-(2H-1,2,3-triazol-2-yl)pyridin-3-yl)-1-(1-fluoroisoquinolin-4-yl)-5-(trifluoromethyl)-1H-pyrazole-4-carboxamide] |
| 1780 nM | 347 nM | > 1510 nM | Cc1nc2cccc(-n3ncc(C(=O)Nc4cnc(-n5nccn5)c(C#N)c4)c3C(F)(F)F)c2s1 [Cpd 247, N-(5-cyano-6-(2H-1,2,3-triazol-2-yl)pyridin-3-yl)-1-(2-methylbenzo[d]thiazol-7-yl)-5-(trifluoromethyl)-1H-pyrazole-4-carboxamide] |
| 2510 nM | 1780 nM | 7590 nM | O=C(Nc1cnc(-n2nccn2)c(Cl)c1)c1cnn(-c2cnc([C@@H]3CCCO3)c3ccccc23)c1C(F)(F)F (single isomer, unassigned) [Cpd 437, (*S)—N-(5-chloro-6-(2H-1,2,3-triazol-2-yl)pyridin-3-yl)-1-(1-(tetrahydrofuran-2-yl)isoquinolin-4-yl)-5-(trifluoromethyl)-1H-pyrazole-4-carboxamide] |
| 93 nM | 389 nM | 95 nM | O=C(Nc1cnc(-n2nccn2)c(Cl)c1)c1c(F)nn(-c2cccc3ncccc23)c1C(F)(F)F [Cpd 160, N-(5-chloro-6-(2H-1,2,3-triazol-2-yl)pyridin-3-yl)-3-fluoro-1-(quinolin-5-yl)-5-(trifluoromethyl)-1H-pyrazole-4-carboxamide] |
| 813 nM | 58 nM | 851 nM | N#Cc1cc(NC(=O)c2cnn(-c3cccc4nccnc34)c2C(F)(F)F)cnc1-n1nccn1 [Cpd 105, N-(5-Cyano-6-(2H-1,2,3-triazol-2-yl)pyridin-3-yl)-1-(quinoxalin-5-yl)-5-(trifluoromethyl)-1H-pyrazole-4-carboxamid] |
| 575 nM | 1700 nM | 3310 nM | O=C(Nc1cnc(-n2nccn2)c(Cl)c1)c1cnn(-c2ncnc3[nH]ncc23)c1C(F)(F)F [Cpd 222, N-(5-chloro-6-(2H-1,2,3-triazol-2-yl)pyridin-3-yl)-1-(1H-pyrazolo[3,4-d]pyrimidin-4-yl)-5-(trifluoromethyl)-1H-pyrazole-4-carboxamide] |
| 15 nM | 501 nM | 21 nM | O=C(Nc1cnc(-n2nccn2)c(Cl)c1)c1cnn(-c2cnc(C3CCN3)c3ccccc23)c1C(F)(F)F (stereo not drawn) [Cpd 379, 1-(1-(azetidin-2-yl)isoquinolin-4-yl)-N-(5-chloro-6-(2H-1,2,3-triazol-2-yl)pyridin-3-yl)-5-(trifluoromethyl)-1H-pyrazole-4-carboxamide] |
| > 15100 nM | 2570 nM | > 15100 nM | Cc1nc(-n2nccn2)c(Cl)cc1NC(=O)c1cnn(-c2cnc(C#N)c3sccc23)c1C(F)(F)F [Cpd 416, N-(5-chloro-2-methyl-6-(2H-1,2,3-triazol-2-yl)pyridin-3-yl)-1-(7-cyanothieno[2,3-c]pyridin-4-yl)-5-(trifluoromethyl)-1H-pyrazole-4-carboxamide] |
| 955 nM | 19 nM | > 15100 nM | N#Cc1ncc(-n2ncc(C(=O)Nc3cnc(-n4nccn4)c(Cl)c3)c2C(F)(F)F)c2ccccc12 [Cpd 414, N-(5-chloro-6-(2H-1,2,3-triazol-2-yl)pyridin-3-yl)-1-(1-cyanoisoquinolin-4-yl)-5-(trifluoromethyl)-1H-pyrazole-4-carboxamide] |
| 87 nM | 3470 nM | 174 nM | Cc1cc(NC(=O)c2cnn(-c3cccc4ncccc34)c2C(F)(F)F)cnc1-n1ccn(C)c1=O [Cpd 218, N-(5-methyl-6-(3-methyl-2-oxo-2,3-dihydro-1H-imidazol-1-yl)pyridin-3-yl)-1-(quinolin-5-yl)-5-(trifluoromethyl)-1H-pyrazole-4-carboxamide] |
| 550 nM | 1150 nM | 6460 nM | N#Cc1cnnn1-c1ncc(NC(=O)c2cnn(-c3cccc4ncccc34)c2C(F)(F)F)cc1Cl [Cpd 227, N-(5-chloro-6-(5-cyano-1H-1,2,3-triazol-1-yl)pyridin-3-yl)-1-(quinolin-5-yl)-5-(trifluoromethyl)-1H-pyrazole-4-carboxamide] |
